In patent US20140079717A1, “Compositions and Methods to Prevent Cell Transformation and Cancer Metastasis” (CORNELL UNIVERSITY, priority 2011, published 2014):

Assay: In vitro liposome fractionation assay
Format: binding
Details: 5 μg protein, 15 minute incubation, centrifugation, SDS-PAGE
Method: FIG. 51. Recombinant tTG can associate with lipid vesicles lacking any protein content. Synthetic liposomes were prepared by extrusion and then equal amounts of this preparation were combined with either 5 μg recombinant tTG (tTG WT) or 5 μg bovine serum albumin (BSA). After a 15 minute incubation, the liposomes were pelleted by centrifugation, and the resulting supernatant (Sup) and liposome (Pellet) fractions were resolved by SDS-PAGE. The gel was then stained with Quick Blue to detect the proteins. A lane containing recombinant tTG (Rec. tTG WT) was included as a standard.
To obtain the results depicted in FIG. 51, the following procedures were used. In vitro liposome fractionation assays—Synthetic liposomes were prepared from a lipid mixture containing 35% phosphatidylethanolamine, 25% phosphatidylserine, 5% phosphatidylinositol, and 35% cholesterol re-suspended in TBSM buffer (20 mM Tris, pH 7.5, 150 mM NaCl, and 2 mM MgCl2). The lipids were extruded through an 8 micron filter, pelleted by centrifugation at 13,000 rpm for 15 minutes, and re-suspended in TBSM buffer. Equal amounts of the lipid preparation were then incubated with either recombinant wild-type tTG or BSA for 15 minutes, followed by centrifugation at 13,000 rpm for 10 minutes at room temperature. […]

bovine serum albumin [BSA]
protein pelleted with synthetic liposomes: only weakly pelleted
